This note sets out measurements from patent US20110306554A1, “PEPTIDE CAPABLE OF BINDING TO IMMUNOGLOBULIN” (priority 2009, published 2011).

Experiment [1] deals with Monoclonal antibody cocktail-induced arthritis mice. Nature of the experiment: Arthritis suppressing effects on arthritis-induced mice, Part 2. Particulars: 10 mg/kg intraperitoneal twice a day, 14 consecutive days from day 0. It is filed as in vivo. The protocol: Monoclonal antibody cocktail-induced arthritis mice were used to examine arthritis suppressing effects of peptides which are indicated as R1, R2, and R5 in Example 2. Arthritis was caused by intravenous administration of 2 mg/mouse of an arthritis-inducing monoclonal antibody cocktail and three days later, intraperitoneal administration of 50 μg/mouse of LPS. The peptides were administered at a dose of 10 mg/kg twice a day for a period of 14 consecutive days from the day of administration of the arthritis-inducing monoclonal antibody cocktail (day 0), and arthritis suppressing effect was examined in terms of clinical score. Experiments were carried out in a similar way to those in the section (1) in Example 3.
The required amount was calculated for each peptide, based on the animal weight. Each peptide solution was prepared to make a concentration of 1 mg/ml in a 0.5% methyl cellulose solution, and the prepared peptide solution was cold stored.
Measurement of body weight of animals was made on days 0, 3, 6, 9, 12, and 14 during the study period, with day 0 being the day of administration of the arthritis-inducing monoclonal antibody cocktail. Observation of general condition was made on a daily basis.
Mice were weighed on the day prior to start of administration and randomly assigned to groups using a grouping software, so that the average body weight values of the groups were approximately equal. To twenty 7-week-old mice, the arthritis-inducing monoclonal antibody cocktail was intravenously administered at a dose of 2 mg/mouse on day 0, and LPS was intraperitoneally administered at a dose of 50 μg/mouse on day 3.
Each peptide solution was given via intraperitoneal administration twice a day, morning and afternoon, from day 0. As a control, a 0.5% solution of methyl cellulose was intraperitoneally administered twice a day from day 0. A needle (26G; Terumo) and a syringe (1.0-ml capacity; Terumo) were used for administration. […]
Results of examinations were expressed by mean value±standard error and analyzed using EXSAS (Version 7.1.6, Arm Systex Co., Ltd.). […]

For experiment [2], the system named is type III allergic (Arthus) reaction-induced rats. Nature of the experiment: Immune-complex disease suppression in type III allergic (Arthus) reaction-induced rats, Part 1. It is filed as in vivo. The protocol:
Using sixty-four 7-week-old male Slc:Wistar rats, examinations were made on peptides R1, R2, and R5, in two series of examinations, each using a different method of administration (intraperitoneal administration and tail vein administration). Acclimation was carried out by giving normal solid chow CRF-1 for a period of 9 days or longer. The back of the animals was shaved on the day prior to administration, and a mixed solution of OVA and Evans blue dye was administered into the tail vein on the day of administration. Each peptide solution was administered intraperitoneally or into the tail vein 30 minutes or 50 minutes after the administration of the mixed solution of OVA and Evans blue dye, respectively. For intracutaneous administration of an anti-OVA solution, […] was intracutaneously administered in the back of animals at a dose of 0.1 ml/site 30 minutes or 10 minutes after the administration of the tested substance in the case of intraperitoneal or intravenous administration, respectively, so as to generate a local Arthus reaction. After the reaction was allowed to be generated for 4 hours, the animals were euthanized, the blood was removed thoroughly, and then the dorsal skin was exfoliated. The Arthus reaction sites on the exfoliated skin were punched out, and the Evans blue dye was extracted from the punched skin overnight. The amount of dye leakage was quantified by measuring absorbance for the Evans blue dye with a spectrophotometer and using a calibration curve (see, H. Okamoto, Y. Iwahisa, and M. Terasawa, “Suppression of the Arthus reaction by Y-24180, a potent and specific antagonist of platelet-activating factor”, Agents Actions, 35:149-158 (1992), for experimental procedures used in Example 4).
A predetermined amount of each peptide (peptides R1, R2, and R5) was dissolved in physiological saline to make a 20 mg/ml solution. A 2 mg/ml solution was prepared by diluting the 20 mg/ml solution 10-fold with physiological saline. A 5 mg/ml solution was prepared by dissolving each peptide in a predetermined amount in physiological saline to make a prepared solution.
A mixed solution of OVA and Evans blue dye was administered into the tail vein at a dose of 2 ml/kg. Each peptide solution was administered intraperitoneally or into the tail vein 30 minutes or 50 minutes after the administration of the mixed solution of OVA and Evans blue dye, respectively. For intracutaneous administration of an anti-OVA solution, […] was intracutaneously administered in the back of animals at a dose of 0.1 mL/site 30 minutes or 10 minutes after the administration of the tested substance in the case of intraperitoneal or intravenous administration, respectively, so as to generate a local Arthus reaction. Intracutaneous administration was conducted at 2 sites for PBS and at 2 sites for the anti-OVA solution per animal. After the reaction was allowed to be generated for 4 hours, the animals were euthanized by decapitation under ether anesthesia, the blood was removed thoroughly, and then the dorsal skin was exfoliated. The Arthus reaction sites on the exfoliated skin were punched out and subjected to dye extraction.
Several cuttings were made in the skin strips that were punched out with a punch. […] The amount of dye leakage was calculated from a calibration curve of known amounts of the dye.
The mean value (mean)±standard deviation (SD) for each group was calculated with body-weight measurements and amounts of dye leakage. […]

Experiment [3] has as its system Cy3-labeled goat anti-mouse immunoglobulin (IgG). Nature of the experiment: Peptide array of C1q subunit 15-mers probed with Cy3-labeled immunoglobulin. It is filed as binding. The conditions noted are these: peptide spots on glass array, 4° C., 12 hours, background fluorescence intensity is 2.6. An excerpt: The amino acid sequences of the A, B, and C subunit chains of human C1q, are shown in SEQ ID NOs: 17 to 19, and the nucleotide sequences in SEQ ID NOs: 20 to 22. Based on each of the amino acid sequences, sequences having 15 amino acids (residues) from each subunit and shifted at intervals of three amino acids, were synthesized on a glass array as synthetic peptides (Peptide Nos. 1 to […], and 193 to 270 for the A, B, and C chains, respectively). The synthesis of each peptide was carried out at a specific location on the array, so as to prepare a peptide array which included the synthetic peptides covering the entire amino acid sequences of the subunits of C1q. The preparation of the array was outsourced to JPT Peptide Technologies GmbH.
To the peptide array was applied 330 μl of an Cy3-labeled goat anti-mouse immunoglobulin (IgG) (1 mg/ml; Zymed Laboratories) diluted 1000-fold with PBS (10 mM phosphate buffer, pH 7.0, 0.1 M NaCl), and the array was sealed and then incubated at 4° C. for 12 hours. After that, the array was washed once with methanol and then 5 times with Milli-Q water for 5 minutes each. The array slide was centrifuged and dried, and scanned with a fluorescence scanner (Agilent DNA microarray scanner; Agilent Technologies), so that fluorescence intensity was quantified at the respective peptide spots on the array using a software (Feature Extraction software; Agilent Technologies). Several spots displaying strong fluorescence intensities were detected. […] Note that in the description, the amino acids are denoted by the one-letter code known in the art.

Experiment [4] has as its system Monoclonal antibody cocktail-induced arthritis mice. Nature of the experiment: Arthritis suppressing effects on arthritis-induced mice, Part 4. It is filed as in vivo. Particulars: intraperitoneal 100 mg/kg once a day from day 4; methotrexate 0.1 mg/kg. The protocol: Monoclonal antibody cocktail-induced arthritis mice were used to examine arthritis suppressing effects of peptides which are indicated as R13 in the section (3) in Example 2 and as R19 and R21 in the section (4) in Example 2. Arthritis was caused by intravenous administration of 2 mg/mouse of an arthritis-inducing monoclonal antibody cocktail and three days later, intraperitoneal administration of 50 μg/mouse of LPS. The peptides […] days from four days after the administration of the arthritis-inducing monoclonal antibody cocktail, and arthritis suppressing effect was examined in terms of clinical score and hind-limb volume determination.
The required amount was calculated for each peptide, based on the animal weight. […]
Measurement of body weight of animals was made on days 0, 3, 6, 9, 12, and 14 during the study period, with day 0 being the day of administration of the arthritis-inducing monoclonal antibody cocktail. Observation of general condition was made on a daily basis. […]
Results of examinations were expressed by mean value±standard error and analyzed using EXSAS (Version 7.1.6, Arm Systex Co., Ltd.). […] Quantitative data, such as body weights and leg volumes, were subjected to Bartlett's test, followed by Dunnett's multiple comparison test when the variance was uniform or Steel's multiple comparison test when the variance was not uniform.

The target of experiment [5] is Cy3-labeled goat anti-mouse immunoglobulin (IgG) (goat). Nature of the experiment: peptide array on glass, Cy3-labelled goat anti-mouse IgG, fluorescence scanner; background 2.6.
Setting [6] is: intraperitoneal administration, 10 or 100 mg/kg.
Where [7] appears, read: tail vein administration, 10 mg/kg.

“Also recorded” adds a separate entry of the source. Non-standard residues stand in square brackets, D forms with d. No end group written: not given here.

Consider “CKVPGLYYF (Immunoglobulin binding peptide) [R2]”, for which the “arthritis suppressing effect (clinical score)” value in experiment [1] is listed as “Arthritis suppressing effects were observed; also recorded: arthritis was suppressed”. Moreover, the “effect of immune-complex disease suppression (dye leakage)” value is “clear and satisfactory effects of immune-complex disease suppression; also recorded: suppressed” in experiment [2] (setting [6]); “clear and satisfactory effects of immune-complex disease suppression; also recorded: suppressed” in experiment [2] (setting [7]). Take “SGKFTCKVPGLYYFT (Immunoglobulin binding peptide) [R3]”: the Fluorescence intensity in experiment [3] is listed as 65,300. For “KFTCKVPGLYYFVYH (Immunoglobulin binding peptide) [compound 245]”, in experiment [3], the Fluorescence intensity is recorded as 65,311. Still for that read-out and setting: the value for “FTCKVPGLYYFTYHA (Immunoglobulin binding peptide) [R4]” was 65,311.

Consider “PGLYYF (Immunoglobulin binding peptide) [R1]”, for which the “arthritis suppressing effect (clinical score)” value in experiment [1] is on record as “Arthritis suppressing effects were observed; also recorded: arthritis was suppressed”. The “effect of immune-complex disease suppression (dye leakage)” value in experiment [2] (setting [6]) was “clear and satisfactory effects of immune-complex disease suppression; also recorded: suppressed”; in experiment [2] (setting [7]), “clear and satisfactory effects of immune-complex disease suppression; also recorded: suppressed”.

As for “CKVPGLYYFVYHASH (Immunoglobulin binding peptide) [R6]”, in experiment [3], the Fluorescence intensity is reported as 65,313.

As for “dSdTGdKdFdTdSdKdVdPGdLdYdYdF ([dS][dT]G[dK][dF][dT][dS][dK][dV][dP]G[dL][dY][dY][dF]) [R21]”, the “arthritis-suppressing effect (clinical score) compared with methotrexate” value in experiment [4] is listed as “arthritis-suppressing effect comparable to or greater than that of methotrexate”.

In experiment [5], FTCKVPGLYYFTYHA [peptide R4 (…)] came in with a Fluorescence intensity of 65300. In the case of STGKFTCKVPGLYYF [peptide R5 (…)], the Fluorescence intensity in experiment [5] came out at 65300. The molecule KFTCKVPGLYYFVYH [Peptide No. 245 (…)] gave a Fluorescence intensity in experiment [5] of 65300.

SGKFTCKVPGLYYFT [peptide R3 (…)]: the Fluorescence intensity in experiment [5] stood at 65300. On the same count and under the same terms, the result for CKVPGLYYFVYHASH [peptide R6 (…)] reads 65300.
